Results as given in US20240100170A1, “CYCLIC-AMP RESPONSE ELEMENT BINDING PROTEIN (CBP) AND/OR ADENOVIRAL E1A BINDING PROTEIN OF 300 KDA (P300) DEGRADATION COMPOUNDS AND METHODS OF USE” (CULLGEN (SHANGHAI), INC., priority 2020, published 2024).
“Also recorded” adds a separate entry of the source. Like-named read-outs stand apart in the source and are kept apart here.

How the values were obtained:
P300 [1] = target: T1, P300 (Homo sapiens, UniProt Q09472); experiment: P300 immunoblotting in 22RV1 subcutaneous xenograft tumors; assay type: in vivo, athymic nude mice; design: from tissue; host or cells: 22RV1 subcutaneous xenograft tumours in athymic nude mice; details: single dose 40 mg/kg, intraperitoneally or orally, six hours after administration; FIG. 9
Procedure: (§1) In addition to cultured cells, athymic nude mice bearing 22RV1 subcutaneous xenograft tumors at the right flank were intraperitoneally or orally treated with 40 mg/kg bivalent compounds. Six hours after drug administration, animals were sacrificed for immunoblotting of P300 and CBP in homogenized xenograft tumor masses. […] Moreover, ICR mice were orally treated with 40 mg/kg bivalent compounds. Six hours after drug administration, animals were sacrificed for immunoblotting of CBP in homogenized lung tissues.
(§2) Athymic nude mice bearing 22RV1 subcutaneous xenograft tumors at the right flank were intraperitoneally or orally treated with selected bivalent compounds at 40 mg/kg. Six hours after drug administration, animals were sacrificed, and xenograft tumors were collected for immunoblotting of P300 and CBP.
(§3) Cultured cells or tissue chunks were washed with cold PBS once and lysed in cold RIPA buffer supplemented with protease inhibitors and phosphatase inhibitors (Beyotime Biotechnology). The solutions were then incubated at 4° C. for 30 minutes with gentle agitation to fully lyse cells. Cell lysates were centrifuged at 13,000 rpm for 10 minutes at 4° C. and pellets were discarded. Total protein concentrations in the lysates were determined by BCA assays (Beyotime Biotechnology). Cell lysates were mixed with Laemmli loading buffer to 1 X and heated at 99° C. for 5 min. Proteins were resolved on SDS-PAGE and visualized by chemiluminescence. Images were taken by a ChemiDoc MP Imaging system (Bio-Rad). Protein bands were quantitated using the accompanied software provided by Bio-Rad.
(§4) All animal experiments were performed under protocols approved by the Institutional Animal Care and Use Committee (IACUC) of Cullgen. Athymic nude mice (male, 5-weeks old) received 5 million 22RV1 cells subcutaneously inoculated at the right flank site. Twenty days following inoculation, tumors were approxmiately 500 mm^3 in size. Tumor-bearing mice were treated intraperitoneally or via oral gavage with vehicle or bivalent compounds at indicated doses. […]

CBP [2] = target: T2, CBP (Homo sapiens, UniProt Q92793); experiment: CBP immunoblotting in 22RV1 subcutaneous xenograft tumors; assay type: in vivo, athymic nude mice; design: from tissue; host or cells: 22RV1 subcutaneous xenograft tumours in athymic nude mice; details: single dose 40 mg/kg, intraperitoneally or orally, six hours after administration; FIG. 9
Procedure: as §1, §2, §3, §4

CBP [3] = target: T2, CBP; experiment: CBP protein level by immunoblotting in LNCaP cells; assay type: cell-based; design: LNCaP or 22RV1 cells that express CBP/P300 proteins were treated with GNE-781 or the bivalent compounds; endogenous in cells; host or cells: LNCaP (clone FGC); details: single dose, FIG. 8
Procedure: (§5) Specific exemplary bivalent compounds were characterized in LNCaP or 22RV1 cells. LNCaP or 22RV1 cells that express CBP/P300 proteins were treated with GNE-781 or the bivalent compounds disclosed herein (P-001 to P-265) for indicated hours. Cells were collected, lysed and subject to immunoblotting using an antibody specific to P300 or CBP proteins. Tubulin or vinculin was included as the loading control. DMSO was used as the negative control.
(§6) LNCaP (clone FGC), 22RV1 and other cells were cultured at 37° C. with 5% CO 2 in RPMI 1640 Medium supplemented with 10% fetal bovine serum. Cells were authenticated using the short tandem repeat (STR) assays. Mycoplasma test results were negative.
as §3

P300 [4] = target: T1, P300; experiment: P300 protein level by immunoblotting in LNCaP cells; assay type: cell-based; design: LNCaP or 22RV1 cells that express CBP/P300 proteins were treated with GNE-781 or the bivalent compounds; endogenous in cells; host or cells: LNCaP or 22RV1 (not given); details: single dose, FIG. 8
Procedure: as §5, §6, §3

[5] = test system: LNCaP prostate cancer cell; experiment: LNCaP cell viability (CellTiter-Glo); assay type: cell-based; details: Homo sapiens, 72 h; LNCaP cell viability, 3 days, CellTiter-Glo; Table 4
Procedure, shortened: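 LNCaP cells (5000/well, RPMI 1640 + 10% FBS, 37 °C) treated with compounds in 12-point 3-fold serial dilution for three days. Viability read by CellTiter-Glo luminescence, normalized to untreated cells; IC50 from least-squares nonlinear regression.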

P300 [6] = target: T1, P300; experiment: percentage of inhibition (degradation) of p300 at 10 nM, Tables 2-4; assay type: cell-based; design: LNCaP or 22RV1 cells that express CBP/P300 proteins were treated with GNE-781 or the bivalent compounds; endogenous in cells; host or cells: LNCaP or 22RV1 (not given); details: read-out: Degradation (10 nM)
Procedure, shortened: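 Degradation was measured at 10 nM. Cells or tissue were lysed in RIPA with protease and phosphatase inhibitors for 30 min at 4 °C and cleared, and protein was quantified by BCA. Lysates were resolved by SDS-PAGE, detected by chemiluminescent immunoblot, and bands were quantified by densitometry.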

T1 sequence (Q09472 whole entry): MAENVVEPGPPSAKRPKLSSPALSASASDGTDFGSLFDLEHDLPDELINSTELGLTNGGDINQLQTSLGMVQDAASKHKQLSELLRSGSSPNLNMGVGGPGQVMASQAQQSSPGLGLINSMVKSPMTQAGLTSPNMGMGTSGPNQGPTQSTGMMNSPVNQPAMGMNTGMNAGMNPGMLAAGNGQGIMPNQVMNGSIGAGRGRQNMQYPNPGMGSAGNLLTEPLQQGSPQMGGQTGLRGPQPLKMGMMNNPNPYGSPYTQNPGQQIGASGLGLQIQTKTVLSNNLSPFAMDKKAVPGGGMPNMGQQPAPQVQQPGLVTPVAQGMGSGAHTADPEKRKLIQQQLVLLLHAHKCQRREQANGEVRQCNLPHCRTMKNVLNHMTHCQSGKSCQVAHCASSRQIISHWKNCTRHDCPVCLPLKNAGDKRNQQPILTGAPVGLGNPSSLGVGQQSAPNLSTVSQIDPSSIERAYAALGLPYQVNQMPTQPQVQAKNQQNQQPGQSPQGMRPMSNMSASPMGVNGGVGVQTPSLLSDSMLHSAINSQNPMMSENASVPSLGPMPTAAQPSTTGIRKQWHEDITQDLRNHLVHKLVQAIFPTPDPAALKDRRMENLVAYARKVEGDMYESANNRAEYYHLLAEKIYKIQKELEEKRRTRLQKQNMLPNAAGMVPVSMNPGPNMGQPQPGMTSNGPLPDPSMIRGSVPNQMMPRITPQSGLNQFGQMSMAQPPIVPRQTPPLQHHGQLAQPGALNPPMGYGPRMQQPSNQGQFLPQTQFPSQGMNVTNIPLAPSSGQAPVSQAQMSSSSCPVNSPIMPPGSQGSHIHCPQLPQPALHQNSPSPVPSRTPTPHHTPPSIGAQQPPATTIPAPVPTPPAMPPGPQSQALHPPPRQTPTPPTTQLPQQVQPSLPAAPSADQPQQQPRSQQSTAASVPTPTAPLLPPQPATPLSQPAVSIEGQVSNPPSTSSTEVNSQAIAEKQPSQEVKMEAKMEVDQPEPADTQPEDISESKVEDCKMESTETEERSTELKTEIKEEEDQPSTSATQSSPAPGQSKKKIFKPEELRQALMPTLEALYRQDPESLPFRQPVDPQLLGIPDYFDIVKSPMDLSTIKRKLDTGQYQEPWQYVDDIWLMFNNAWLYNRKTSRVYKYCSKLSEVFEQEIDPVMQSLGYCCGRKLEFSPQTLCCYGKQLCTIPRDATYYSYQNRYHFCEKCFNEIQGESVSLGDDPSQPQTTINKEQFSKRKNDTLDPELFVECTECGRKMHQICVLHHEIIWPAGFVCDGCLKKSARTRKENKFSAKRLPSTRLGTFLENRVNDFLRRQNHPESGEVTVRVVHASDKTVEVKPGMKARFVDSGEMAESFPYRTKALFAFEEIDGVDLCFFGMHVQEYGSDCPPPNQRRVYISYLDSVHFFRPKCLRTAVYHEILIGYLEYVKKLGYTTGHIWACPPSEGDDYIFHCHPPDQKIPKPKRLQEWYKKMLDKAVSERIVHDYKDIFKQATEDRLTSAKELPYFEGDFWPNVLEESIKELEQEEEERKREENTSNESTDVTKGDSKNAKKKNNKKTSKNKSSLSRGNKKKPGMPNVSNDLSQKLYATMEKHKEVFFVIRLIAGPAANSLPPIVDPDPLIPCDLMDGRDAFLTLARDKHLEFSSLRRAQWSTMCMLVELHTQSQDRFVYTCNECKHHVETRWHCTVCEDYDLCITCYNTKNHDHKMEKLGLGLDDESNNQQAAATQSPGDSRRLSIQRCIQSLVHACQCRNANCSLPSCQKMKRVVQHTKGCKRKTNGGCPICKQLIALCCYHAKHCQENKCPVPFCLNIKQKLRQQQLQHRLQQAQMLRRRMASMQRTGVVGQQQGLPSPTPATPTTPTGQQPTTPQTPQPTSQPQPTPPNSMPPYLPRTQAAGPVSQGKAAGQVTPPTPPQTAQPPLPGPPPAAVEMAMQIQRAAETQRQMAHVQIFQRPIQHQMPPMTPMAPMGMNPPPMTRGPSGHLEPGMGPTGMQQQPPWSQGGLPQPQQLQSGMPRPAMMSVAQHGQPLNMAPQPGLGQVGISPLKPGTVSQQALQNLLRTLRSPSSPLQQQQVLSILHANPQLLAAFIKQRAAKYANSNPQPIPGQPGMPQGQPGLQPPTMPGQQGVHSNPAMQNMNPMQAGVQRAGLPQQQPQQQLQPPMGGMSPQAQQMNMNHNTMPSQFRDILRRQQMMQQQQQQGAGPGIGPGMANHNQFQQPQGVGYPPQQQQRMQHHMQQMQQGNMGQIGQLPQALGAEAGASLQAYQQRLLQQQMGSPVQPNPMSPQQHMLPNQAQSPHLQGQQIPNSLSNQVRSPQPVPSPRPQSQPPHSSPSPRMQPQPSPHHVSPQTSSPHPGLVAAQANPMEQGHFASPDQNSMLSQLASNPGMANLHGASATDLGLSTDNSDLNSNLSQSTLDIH
T2 sequence (Q92793 whole entry): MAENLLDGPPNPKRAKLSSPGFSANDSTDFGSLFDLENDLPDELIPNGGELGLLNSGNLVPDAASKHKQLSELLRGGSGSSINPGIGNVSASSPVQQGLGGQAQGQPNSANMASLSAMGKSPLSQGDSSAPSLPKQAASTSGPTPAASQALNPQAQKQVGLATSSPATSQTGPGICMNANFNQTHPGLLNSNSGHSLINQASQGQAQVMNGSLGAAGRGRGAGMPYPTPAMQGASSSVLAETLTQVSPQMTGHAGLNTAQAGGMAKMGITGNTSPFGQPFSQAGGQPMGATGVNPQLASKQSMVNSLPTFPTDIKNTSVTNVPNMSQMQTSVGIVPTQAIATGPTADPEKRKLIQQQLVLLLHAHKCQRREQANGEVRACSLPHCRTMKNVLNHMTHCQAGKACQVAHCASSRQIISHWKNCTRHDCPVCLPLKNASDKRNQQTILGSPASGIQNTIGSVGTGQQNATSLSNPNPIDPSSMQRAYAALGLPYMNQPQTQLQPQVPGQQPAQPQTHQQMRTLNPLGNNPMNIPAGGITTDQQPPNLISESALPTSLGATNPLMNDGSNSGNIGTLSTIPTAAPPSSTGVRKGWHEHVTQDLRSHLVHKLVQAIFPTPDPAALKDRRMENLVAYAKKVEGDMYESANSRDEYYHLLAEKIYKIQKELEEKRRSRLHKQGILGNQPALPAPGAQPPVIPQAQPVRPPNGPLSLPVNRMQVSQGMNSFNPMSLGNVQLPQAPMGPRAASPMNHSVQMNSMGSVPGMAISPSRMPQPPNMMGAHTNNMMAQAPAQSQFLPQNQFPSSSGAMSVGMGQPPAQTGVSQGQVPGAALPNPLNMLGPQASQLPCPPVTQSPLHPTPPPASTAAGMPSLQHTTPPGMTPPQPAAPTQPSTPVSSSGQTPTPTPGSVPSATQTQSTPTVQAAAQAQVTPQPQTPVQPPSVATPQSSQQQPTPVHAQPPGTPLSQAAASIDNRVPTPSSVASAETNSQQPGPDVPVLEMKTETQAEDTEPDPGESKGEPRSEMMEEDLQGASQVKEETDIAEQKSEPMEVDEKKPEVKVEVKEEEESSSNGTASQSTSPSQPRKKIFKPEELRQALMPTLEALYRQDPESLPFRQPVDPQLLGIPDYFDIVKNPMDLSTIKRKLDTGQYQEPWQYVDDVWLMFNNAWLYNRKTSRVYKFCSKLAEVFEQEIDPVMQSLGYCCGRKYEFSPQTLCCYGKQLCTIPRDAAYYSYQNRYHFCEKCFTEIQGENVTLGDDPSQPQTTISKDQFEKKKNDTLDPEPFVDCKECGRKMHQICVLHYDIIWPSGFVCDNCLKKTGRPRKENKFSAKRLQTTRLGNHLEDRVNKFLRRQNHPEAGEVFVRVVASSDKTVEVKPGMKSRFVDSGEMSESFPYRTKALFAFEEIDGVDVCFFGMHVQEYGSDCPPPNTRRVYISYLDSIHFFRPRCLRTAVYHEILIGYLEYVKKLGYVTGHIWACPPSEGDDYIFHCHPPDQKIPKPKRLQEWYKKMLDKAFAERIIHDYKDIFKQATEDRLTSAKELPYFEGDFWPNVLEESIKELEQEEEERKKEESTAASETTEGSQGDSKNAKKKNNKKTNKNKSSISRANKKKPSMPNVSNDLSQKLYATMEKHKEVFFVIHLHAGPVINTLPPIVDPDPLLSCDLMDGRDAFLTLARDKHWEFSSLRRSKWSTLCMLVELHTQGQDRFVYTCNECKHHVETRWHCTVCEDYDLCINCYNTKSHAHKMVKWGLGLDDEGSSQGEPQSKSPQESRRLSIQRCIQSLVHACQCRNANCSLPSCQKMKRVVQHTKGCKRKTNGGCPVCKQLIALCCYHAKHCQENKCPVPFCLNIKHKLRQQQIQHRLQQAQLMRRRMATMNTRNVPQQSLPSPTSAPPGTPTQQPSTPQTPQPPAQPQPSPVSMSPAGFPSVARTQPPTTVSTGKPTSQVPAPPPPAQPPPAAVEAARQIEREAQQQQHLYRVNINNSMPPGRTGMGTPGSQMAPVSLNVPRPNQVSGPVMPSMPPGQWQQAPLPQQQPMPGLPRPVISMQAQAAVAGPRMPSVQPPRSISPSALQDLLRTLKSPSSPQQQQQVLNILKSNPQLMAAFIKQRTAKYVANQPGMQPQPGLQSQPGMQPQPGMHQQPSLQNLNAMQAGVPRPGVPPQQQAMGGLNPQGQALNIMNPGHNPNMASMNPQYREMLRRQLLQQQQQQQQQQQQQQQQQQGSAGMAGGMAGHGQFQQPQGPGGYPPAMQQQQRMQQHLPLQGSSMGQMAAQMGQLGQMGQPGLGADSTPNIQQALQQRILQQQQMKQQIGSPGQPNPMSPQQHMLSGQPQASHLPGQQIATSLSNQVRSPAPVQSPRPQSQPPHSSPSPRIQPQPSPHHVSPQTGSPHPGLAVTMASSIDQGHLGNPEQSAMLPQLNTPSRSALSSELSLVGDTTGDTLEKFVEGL

SMILES	IC50 [5]	inhibition at 0.01 µM (P300 [6]; p300, 10 nM, Table 4)	further results
CNC(=O)N1CCc2c(c(N3CCCc4cc(-c5cnn(C)c5)c(C(F)F)cc43)nn2C2CCN(C(=O)CCCCCCCNc3ccc4c(c3)C(=O)N(C3CCC(=O)NC3=O)C4=O)CC2)C1 (stereo not drawn) [P-007, 3-(7-(difluoromethyl)-6-(1-methyl-1H-pyrazol-4-yl)-3,4-dihydroquinolin-1(2H)-yl)-1-(1-(8-((2-(2,6-dioxopiperidin-3-yl)-1,3-dioxoisoindolin-5-yl)amino)octanoyl)piperidin-4-yl)-N-methyl-1,4,6,7-tetrahydro-5H-pyrazolo[4,3-c]pyridine-5-carboxamide]	–	–	P300 protein levels in xenograft tumors (P300 [1]): significantly reducing; CBP protein levels in xenograft tumors (CBP [2]): significantly reducing; degradation of CBP in combination with pomalidomide, MG-132, Bortezomib or MLN4924 (CBP [3]): compromised; also recorded: could be neutralized; degradation of P300 in combination with pomalidomide, MG-132, Bortezomib or MLN4924 (P300 [4]): compromised; also recorded: could be neutralized
CC(=O)N1CCc2c(c(N3CCCc4cc(-c5cnn(C)c5)c(C(F)F)cc43)nn2C2CCN(CCN3CCC(C#Cc4cccc5c4n(C)c(=O)n5C4CCC(=O)NC4=O)CC3)CC2)C1 (stereo not drawn) [P-251, 3-(4-((1-(2-(4-(5-acetyl-3-(7-(difluoromethyl)-6-(1-methyl-1H-pyrazol-4-yl)-3,4-dihydroquinolin-1(2H)-yl)-4,5,6,7-tetrahydro-1H-pyrazolo[4,3-c]pyridin-1-yl)piperidin-1-yl)ethyl)piperidin-4-yl)ethynyl)-3-methyl-2-oxo-2,3-dihydro-1H-benzo[d]imidazol-1-yl)piperidine-2,6-dione]	0.1 nM	–	inhibition at 0.01 µM (P300 [6]): > 80%
CC(=O)N1CCc2c(c(N3CCCc4cc(-c5cnn(C)c5)c(C(F)F)cc43)nn2C2CCN(CCN3CCC(CCc4cccc5c4n(C)c(=O)n5C4CCC(=O)NC4=O)CC3)CC2)C1 (stereo not drawn) [P-252, 3-(4-(2-(1-(2-(4-(5-acetyl-3-(7-(difluoromethyl)-6-(1-methyl-1H-pyrazol-4-yl)-3,4-dihydroquinolin-1(2H)-yl)-4,5,6,7-tetrahydro-1H-pyrazolo[4,3-c]pyridin-1-yl)piperidin-1-yl)ethyl)piperidin-4-yl)ethyl)-3-methyl-2-oxo-2,3-dihydro-1H-benzo[d]imidazol-1-yl)piperidine-2,6-dione]	0.1 nM	–	inhibition at 0.01 µM (P300 [6]): > 80%
CC(=O)N1CCc2c(c(N3CCCc4cc(-c5cnn(C)c5)c(C(F)F)cc43)nn2C2CCN(C(=O)CCCNc3ccc(C(=O)NC4CCC(=O)NC4=O)c4ncccc34)CC2)C1 (stereo not drawn) [P-253, 5-((4-(4-(5-acetyl-3-(7-(difluoromethyl)-6-(1-methyl-1H-pyrazol-4-yl)-3,4-dihydroquinolin-1(2H)-yl)-4,5,6,7-tetrahydro-1H-pyrazolo[4,3-c]pyridin-1-yl)piperidin-1-yl)-4-oxobutyl)amino)-N-(2,6-dioxopiperidin-3-yl)quinoline-8-carboxamide]	2.6 nM	> 80%	–
CC(=O)N1CCc2c(c(N3CCCc4cc(-c5cnn(C)c5)c(C(F)F)cc43)nn2C2CCN(C(=O)CNc3ccc(C(=O)NC4CCC(=O)NC4=O)c4ncccc34)CC2)C1 (stereo not drawn) [P-254, 5-((2-(4-(5-acetyl-3-(7-(difluoromethyl)-6-(1-methyl-1H-pyrazol-4-yl)-3,4-dihydroquinolin-1(2H)-yl)-4,5,6,7-tetrahydro-1H-pyrazolo[4,3-c]pyridin-1-yl)piperidin-1-yl)-2-oxoethyl)amino)-N-(2,6-dioxopiperidin-3-yl)quinoline-8-carboxamide]	5.1 nM	> 80%	–
CC(=O)N1CCc2c(c(N3CCCc4cc(-c5cnn(C)c5)c(C(F)F)cc43)nn2C2CCN(C(=O)CC3CCN(c4ccc(C(=O)NC5CCC(=O)NC5=O)c5ncccc45)CC3)CC2)C1 (stereo not drawn) [P-256, 5-(4-(2-(4-(5-acetyl-3-(7-(difluoromethyl)-6-(1-methyl-1H-pyrazol-4-yl)-3,4-dihydroquinolin-1(2H)-yl)-4,5,6,7-tetrahydro-1H-pyrazolo[4,3-c]pyridin-1-yl)piperidin-1-yl)-2-oxoethyl)piperidin-1-yl)-N-(2,6-dioxopiperidin-3-yl)quinoline-8-carboxamide]	1.3 nM	> 80%	–
CC(=O)N1CCc2c(c(N3CCCc4cc(-c5cnn(C)c5)c(C(F)F)cc43)nn2C2CCN(C(=O)CCCCCCCCC(=O)Nc3cccc(NC4CCC(=O)NC4=O)c3)CC2)C1 (stereo not drawn) [P-264, 10-(4-(5-Acetyl-3-(7-(difluoromethyl)-6-(1-methyl-1H-pyrazol-4-yl)-3,4-dihydroquinolin-1(2H)-yl)-4,5,6,7-tetrahydro-1H-pyrazolo[4,3-c]pyridin-1-yl)piperidin-1-yl)-N-(3-((2,6-dioxopiperidin-3-yl)amino)phenyl)-10-oxodecanamide]	486 nM	< 20%	–
CC(=O)N1CCc2c(c(N3CCCc4cc(-c5cnn(C)c5)c(C(F)F)cc43)nn2C2CCN(C(=O)CCCCCCCCCC(=O)Nc3cccc(NC4CCC(=O)NC4=O)c3)CC2)C1 (stereo not drawn) [P-265, 11-(4-(5-Acetyl-3-(7-(difluoromethyl)-6-(1-methyl-1H-pyrazol-4-yl)-3,4-dihydroquinolin-1(2H)-yl)-4,5,6,7-tetrahydro-1H-pyrazolo[4,3-c]pyridin-1-yl)piperidin-1-yl)-N-(3-((2,6-dioxopiperidin-3-yl)amino)phenyl)-11-oxoundecanamide]	592 nM	< 20%	–
